Data taken from the kinase profiling compilation of Christmann-Franck et al. (2016).

How the values were obtained:
Experiment in all cases: radiometric filter-binding kinase assay, Kinase HotSpot
CDK3 CCNE1 (human) = CDK3 CCNE1 (human) (UniProt Q00526+P24864); settings: compound 0.5 µM
CDK6 CCND3 (human) = CDK6 CCND3 (human) (UniProt P30281+Q00534); settings: compound 0.5 µM
MYLK2 (human) = MYLK2 (human) (UniProt Q9H1R3); settings: compound 0.5 µM; ATP 10 µM
TYRO3 (human) = TYRO3 (human) (UniProt Q06418); settings: compound 0.5 µM; ATP 10 µM
AKT3 (human) = AKT3 (human) (UniProt Q9Y243); settings: compound 0.5 µM; ATP 10 µM
STK39 (human) = STK39 (human) (UniProt Q9UEW8); settings: compound 0.5 µM
TAOK3 (human) = TAOK3 (human) (UniProt Q9H2K8); settings: compound 0.5 µM; ATP 10 µM
CHEK1 (human) = CHEK1 (human) (UniProt O14757); settings: compound 0.5 µM; ATP 10 µM
DAPK2 (human) = DAPK2 (human) (UniProt Q9UIK4); settings: compound 0.5 µM; ATP 10 µM
CAMK2A (human) = CAMK2A (human) (UniProt Q9UQM7); settings: compound 0.5 µM; ATP 10 µM
[1] = target: JAK1 JH1 catalytic (human) (UniProt P23458); settings: compound 0.5 µM; ATP 10 µM
CLK1 (human) = CLK1 (human) (UniProt P49759); settings: compound 0.5 µM; ATP 10 µM
TSSK1B (human) = TSSK1B (human) (UniProt Q9BXA7); settings: compound 0.5 µM; ATP 10 µM
RIPK2 (human) = RIPK2 (human) (UniProt O43353); settings: compound 0.5 µM; ATP 10 µM
HIPK4 (human) = HIPK4 (human) (UniProt Q8NE63); settings: compound 0.5 µM; ATP 10 µM
TSSK2 (human) = TSSK2 (human) (UniProt Q96PF2); settings: compound 0.5 µM; ATP 10 µM
MAPK1 (human) = MAPK1 (human) (UniProt P28482); settings: compound 0.5 µM; ATP 10 µM
STK11 (human) = STK11 (human) (UniProt Q15831); settings: compound 0.5 µM; ATP 10 µM
JAK3 JH1 JH2 (human) = JAK3 JH1 JH2 (human) (UniProt P52333); settings: compound 0.5 µM; ATP 10 µM
EPHB4 (human) = EPHB4 (human) (UniProt P54760); settings: compound 0.5 µM; ATP 10 µM
PBK (human) = PBK (human) (UniProt Q96KB5); settings: compound 0.5 µM; ATP 10 µM
CDK4 CCND1 (human) = CDK4 CCND1 (human) (UniProt P24385+P11802); settings: compound 0.5 µM
CAMK2D (human) = CAMK2D (human) (UniProt Q13557); settings: compound 0.5 µM; ATP 10 µM
YES1 (human) = YES1 (human) (UniProt P07947); settings: compound 0.5 µM; ATP 10 µM
ROCK1 (human) = ROCK1 (human) (UniProt Q13464); settings: compound 0.5 µM; ATP 10 µM
CDK2 CCNA2 (human) = CDK2 CCNA2 (human) (UniProt P24941+P20248); settings: compound 0.5 µM
CAMK1G (human) = CAMK1G (human) (UniProt Q96NX5); settings: compound 0.5 µM; ATP 10 µM
TGFBR1 (human) = TGFBR1 (human) (UniProt P36897); settings: compound 0.5 µM; ATP 10 µM
IRAK1 (human) = IRAK1 (human) (UniProt P51617); settings: compound 0.5 µM; ATP 10 µM
PRKCI (human) = PRKCI (human) (UniProt P41743); settings: compound 0.5 µM; ATP 10 µM
GRK7 (human) = GRK7 (human) (UniProt Q8WTQ7); settings: compound 0.5 µM; ATP 10 µM
DAPK3 (human) = DAPK3 (human) (UniProt O43293); settings: compound 0.5 µM; ATP 10 µM
VRK1 (human) = VRK1 (human) (UniProt Q99986); settings: compound 0.5 µM; ATP 10 µM
PRKCH (human) = PRKCH (human) (UniProt P24723); settings: compound 0.5 µM; ATP 10 µM
PIM2 (human) = PIM2 (human) (UniProt Q9P1W9); settings: compound 0.5 µM; ATP 10 µM
GRK4 (human) = GRK4 (human) (UniProt P32298); settings: compound 0.5 µM; ATP 10 µM
PRKD1 (human) = PRKD1 (human) (UniProt Q15139); settings: compound 0.5 µM; ATP 10 µM
RPS6KA5 KD2 (human) = RPS6KA5 KD2 (human) (UniProt O75582); settings: compound 0.5 µM; ATP 10 µM
CAMK2B (human) = CAMK2B (human) (UniProt Q13554); settings: compound 0.5 µM; ATP 10 µM
[2] = target: TYK2 JH1 catalytic (human) (UniProt P29597); settings: compound 0.5 µM; ATP 10 µM
STK33 (human) = STK33 (human) (UniProt Q9BYT3); settings: compound 0.5 µM; ATP 10 µM
Chain of STK33 (human) (Q9BYT3 whole entry, looked up): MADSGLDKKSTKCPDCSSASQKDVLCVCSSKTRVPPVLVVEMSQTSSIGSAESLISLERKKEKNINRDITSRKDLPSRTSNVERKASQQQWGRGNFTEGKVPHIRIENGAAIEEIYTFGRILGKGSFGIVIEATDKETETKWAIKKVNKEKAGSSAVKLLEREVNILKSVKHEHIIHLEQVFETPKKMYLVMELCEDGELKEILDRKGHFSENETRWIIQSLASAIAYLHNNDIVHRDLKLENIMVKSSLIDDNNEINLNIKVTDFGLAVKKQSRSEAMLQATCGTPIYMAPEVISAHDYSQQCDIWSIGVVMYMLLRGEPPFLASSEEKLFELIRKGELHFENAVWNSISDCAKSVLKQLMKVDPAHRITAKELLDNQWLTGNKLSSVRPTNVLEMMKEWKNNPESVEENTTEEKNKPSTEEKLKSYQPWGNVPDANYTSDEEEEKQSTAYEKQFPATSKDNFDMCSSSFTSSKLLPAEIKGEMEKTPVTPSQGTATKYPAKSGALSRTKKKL

Chain of GRK4 (human) (P32298 whole entry, looked up): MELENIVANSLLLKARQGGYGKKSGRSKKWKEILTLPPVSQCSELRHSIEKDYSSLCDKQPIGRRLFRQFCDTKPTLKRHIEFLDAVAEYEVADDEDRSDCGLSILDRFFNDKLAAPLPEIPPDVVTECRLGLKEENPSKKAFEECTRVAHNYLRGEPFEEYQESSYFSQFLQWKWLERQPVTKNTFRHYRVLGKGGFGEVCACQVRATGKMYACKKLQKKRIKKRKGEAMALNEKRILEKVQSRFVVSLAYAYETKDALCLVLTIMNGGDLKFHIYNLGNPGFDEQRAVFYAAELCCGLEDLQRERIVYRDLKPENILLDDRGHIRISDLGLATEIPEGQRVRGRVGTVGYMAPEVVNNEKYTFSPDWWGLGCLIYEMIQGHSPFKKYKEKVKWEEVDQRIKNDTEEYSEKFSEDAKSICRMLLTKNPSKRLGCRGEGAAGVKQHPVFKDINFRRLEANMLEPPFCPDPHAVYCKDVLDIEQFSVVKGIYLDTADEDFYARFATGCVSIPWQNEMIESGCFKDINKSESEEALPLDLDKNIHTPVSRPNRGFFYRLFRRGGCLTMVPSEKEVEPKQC
Chain of CAMK2B (human) (Q13554 whole entry, looked up): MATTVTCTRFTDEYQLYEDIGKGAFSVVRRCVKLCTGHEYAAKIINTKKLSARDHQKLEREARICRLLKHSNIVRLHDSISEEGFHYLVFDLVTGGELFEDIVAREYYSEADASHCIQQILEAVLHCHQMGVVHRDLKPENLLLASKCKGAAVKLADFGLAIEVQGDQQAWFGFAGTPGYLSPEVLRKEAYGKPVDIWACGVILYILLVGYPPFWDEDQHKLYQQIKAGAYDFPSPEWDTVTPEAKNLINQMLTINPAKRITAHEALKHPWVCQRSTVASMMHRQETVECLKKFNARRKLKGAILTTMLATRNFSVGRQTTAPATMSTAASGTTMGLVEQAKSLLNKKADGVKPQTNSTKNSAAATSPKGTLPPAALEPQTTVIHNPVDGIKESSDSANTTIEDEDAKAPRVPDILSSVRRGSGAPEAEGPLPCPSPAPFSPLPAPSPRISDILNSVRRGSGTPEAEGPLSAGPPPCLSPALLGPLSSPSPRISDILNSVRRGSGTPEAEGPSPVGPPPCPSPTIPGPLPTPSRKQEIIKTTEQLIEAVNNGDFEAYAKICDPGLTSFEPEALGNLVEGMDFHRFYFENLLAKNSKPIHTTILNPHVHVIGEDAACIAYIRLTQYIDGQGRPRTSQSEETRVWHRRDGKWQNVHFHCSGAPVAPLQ
Chain of CAMK2A (human) (Q9UQM7 whole entry, looked up): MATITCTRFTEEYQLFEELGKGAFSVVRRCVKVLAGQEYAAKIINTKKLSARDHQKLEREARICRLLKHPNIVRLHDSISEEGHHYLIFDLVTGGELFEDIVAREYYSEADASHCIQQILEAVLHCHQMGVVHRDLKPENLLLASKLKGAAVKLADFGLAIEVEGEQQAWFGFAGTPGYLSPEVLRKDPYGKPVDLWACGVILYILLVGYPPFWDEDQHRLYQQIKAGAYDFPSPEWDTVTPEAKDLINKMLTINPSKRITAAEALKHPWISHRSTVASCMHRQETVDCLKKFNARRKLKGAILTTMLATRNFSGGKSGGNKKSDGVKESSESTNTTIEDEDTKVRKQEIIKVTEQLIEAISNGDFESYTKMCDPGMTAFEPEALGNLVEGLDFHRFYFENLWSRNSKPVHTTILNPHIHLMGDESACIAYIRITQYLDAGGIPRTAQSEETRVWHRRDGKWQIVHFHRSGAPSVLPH
Chain of STK11 (human) (Q15831 whole entry, looked up): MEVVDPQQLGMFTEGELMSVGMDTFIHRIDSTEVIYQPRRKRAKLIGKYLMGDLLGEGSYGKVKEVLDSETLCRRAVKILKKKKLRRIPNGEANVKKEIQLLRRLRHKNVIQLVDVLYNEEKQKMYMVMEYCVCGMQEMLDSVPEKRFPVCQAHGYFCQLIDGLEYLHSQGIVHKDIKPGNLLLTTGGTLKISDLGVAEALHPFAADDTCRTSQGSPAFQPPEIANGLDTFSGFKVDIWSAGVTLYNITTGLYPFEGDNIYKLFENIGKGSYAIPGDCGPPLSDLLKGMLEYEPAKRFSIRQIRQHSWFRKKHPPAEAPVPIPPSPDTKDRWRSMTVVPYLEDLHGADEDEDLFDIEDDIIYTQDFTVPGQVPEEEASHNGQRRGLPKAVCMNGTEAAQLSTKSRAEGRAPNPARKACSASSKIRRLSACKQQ
Chain of TAOK3 (human) (Q9H2K8 whole entry, looked up): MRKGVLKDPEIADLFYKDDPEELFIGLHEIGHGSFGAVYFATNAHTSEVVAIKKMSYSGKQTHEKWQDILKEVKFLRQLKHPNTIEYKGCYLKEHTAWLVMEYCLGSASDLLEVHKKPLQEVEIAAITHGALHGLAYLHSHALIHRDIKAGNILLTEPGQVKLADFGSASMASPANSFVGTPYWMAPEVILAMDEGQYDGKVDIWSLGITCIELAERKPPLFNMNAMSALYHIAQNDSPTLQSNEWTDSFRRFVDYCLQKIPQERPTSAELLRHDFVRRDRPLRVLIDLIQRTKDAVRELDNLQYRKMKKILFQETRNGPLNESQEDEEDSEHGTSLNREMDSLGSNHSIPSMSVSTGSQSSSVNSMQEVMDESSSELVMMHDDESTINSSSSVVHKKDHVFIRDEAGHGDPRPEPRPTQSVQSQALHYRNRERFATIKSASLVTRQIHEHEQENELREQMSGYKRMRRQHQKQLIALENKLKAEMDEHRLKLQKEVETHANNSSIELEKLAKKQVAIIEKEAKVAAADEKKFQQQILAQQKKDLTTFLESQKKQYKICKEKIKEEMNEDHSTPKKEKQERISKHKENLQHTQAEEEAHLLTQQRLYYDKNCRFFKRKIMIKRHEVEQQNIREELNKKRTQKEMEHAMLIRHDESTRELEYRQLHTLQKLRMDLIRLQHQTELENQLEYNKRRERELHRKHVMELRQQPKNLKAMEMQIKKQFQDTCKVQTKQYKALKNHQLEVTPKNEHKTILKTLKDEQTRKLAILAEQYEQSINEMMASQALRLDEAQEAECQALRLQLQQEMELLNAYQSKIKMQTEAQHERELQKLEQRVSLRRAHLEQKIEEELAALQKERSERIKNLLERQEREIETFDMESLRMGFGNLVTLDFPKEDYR
Chain of TSSK1B (human) (Q9BXA7 whole entry, looked up): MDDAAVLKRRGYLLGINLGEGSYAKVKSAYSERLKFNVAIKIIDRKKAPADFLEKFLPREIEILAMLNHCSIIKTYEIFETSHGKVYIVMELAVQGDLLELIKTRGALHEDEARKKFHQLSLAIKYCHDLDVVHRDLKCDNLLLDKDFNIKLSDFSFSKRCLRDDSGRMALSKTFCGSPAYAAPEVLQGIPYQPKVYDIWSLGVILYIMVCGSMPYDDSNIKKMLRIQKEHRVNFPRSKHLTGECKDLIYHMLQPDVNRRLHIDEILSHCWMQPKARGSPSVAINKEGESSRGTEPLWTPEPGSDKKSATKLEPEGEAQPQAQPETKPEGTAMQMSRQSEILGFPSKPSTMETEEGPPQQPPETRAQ
Chain of PIM2 (human) (Q9P1W9 whole entry, looked up): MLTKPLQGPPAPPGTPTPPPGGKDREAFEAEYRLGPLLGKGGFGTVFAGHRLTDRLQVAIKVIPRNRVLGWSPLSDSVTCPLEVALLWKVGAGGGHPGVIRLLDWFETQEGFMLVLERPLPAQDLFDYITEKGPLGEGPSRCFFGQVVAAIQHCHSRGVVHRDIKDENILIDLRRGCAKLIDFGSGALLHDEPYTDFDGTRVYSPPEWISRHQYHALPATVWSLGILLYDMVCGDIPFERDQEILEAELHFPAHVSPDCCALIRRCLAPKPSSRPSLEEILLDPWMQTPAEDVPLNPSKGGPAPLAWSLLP
Chain of DAPK2 (human) (Q9UIK4 whole entry, looked up): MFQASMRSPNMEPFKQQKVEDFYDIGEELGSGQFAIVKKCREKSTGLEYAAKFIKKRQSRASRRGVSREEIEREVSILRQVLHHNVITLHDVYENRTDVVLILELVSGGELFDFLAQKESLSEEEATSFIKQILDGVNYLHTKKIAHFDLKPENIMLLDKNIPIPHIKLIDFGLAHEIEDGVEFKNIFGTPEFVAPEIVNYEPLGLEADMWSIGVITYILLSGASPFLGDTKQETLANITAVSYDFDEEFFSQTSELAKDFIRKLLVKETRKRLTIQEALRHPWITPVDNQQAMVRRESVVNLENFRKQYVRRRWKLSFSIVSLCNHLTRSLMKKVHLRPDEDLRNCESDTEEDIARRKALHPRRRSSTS
Chain of MAPK1 (human) (P28482 whole entry, looked up): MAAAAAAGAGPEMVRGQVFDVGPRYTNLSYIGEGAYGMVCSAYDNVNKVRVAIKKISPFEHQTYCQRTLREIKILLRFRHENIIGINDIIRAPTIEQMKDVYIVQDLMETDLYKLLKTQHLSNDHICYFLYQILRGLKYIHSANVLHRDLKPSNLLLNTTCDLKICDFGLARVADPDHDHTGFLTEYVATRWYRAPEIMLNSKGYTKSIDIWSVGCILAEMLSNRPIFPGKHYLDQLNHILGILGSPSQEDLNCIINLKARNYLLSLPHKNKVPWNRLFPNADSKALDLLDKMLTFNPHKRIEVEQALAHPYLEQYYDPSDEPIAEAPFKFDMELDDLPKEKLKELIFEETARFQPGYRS

Compound: CCCCc1c(-c2ccc(O)cc2)[nH]c2nccnc12
- residual activity (CDK3 CCNE1 (human); ATP 10 µM): 76.8%
- residual activity (CDK6 CCND3 (human); ATP 10 µM): 84.6%
- residual activity (MYLK2 (human)): 95.7%
- residual activity (TYRO3 (human)): 99.6%
- residual activity (AKT3 (human)): 95.8%
- residual activity (STK39 (human); ATP 10 µM): 76.1%
- residual activity (TAOK3 (human)): 82.5%
- residual activity (CHEK1 (human)): 92.9%
- residual activity (DAPK2 (human)): 101%
- residual activity (CAMK2A (human)): 97.8%
- residual activity [1]: 53.8%
- residual activity (CLK1 (human)): 97.9%
- residual activity (TSSK1B (human)): 62%
- residual activity (RIPK2 (human)): 58.6%
- residual activity (HIPK4 (human)): 108%
- residual activity (TSSK2 (human)): 96.7%
- residual activity (MAPK1 (human)): 106%
- residual activity (STK11 (human)): 33.5%
- residual activity (JAK3 JH1 JH2 (human)): 92.2%
- residual activity (EPHB4 (human)): 86%
- residual activity (PBK (human)): 75.6%
- residual activity (CDK4 CCND1 (human); ATP 10 µM): 66.4%
- residual activity (CAMK2D (human)): 87.3%
- residual activity (YES1 (human)): 46.5%
- residual activity (ROCK1 (human)): 98.6%
- residual activity (CDK2 CCNA2 (human); ATP 10 µM): 22.4%
- residual activity (CAMK1G (human)): 104%
- residual activity (TGFBR1 (human)): 100%
- residual activity (IRAK1 (human)): 63.4%
- residual activity (PRKCI (human)): 99.4%
- residual activity (GRK7 (human)): 82.4%
- residual activity (DAPK3 (human)): 94.9%
- residual activity (VRK1 (human)): 87.9%
- residual activity (PRKCH (human)): 90.5%
- residual activity (PIM2 (human)): 121%
- residual activity (GRK4 (human)): 101%
- residual activity (PRKD1 (human)): 77.7%
- residual activity (RPS6KA5 KD2 (human)): 101%
- residual activity (CAMK2B (human)): 97%
- residual activity [2]: 43.4%
- residual activity (STK33 (human)): 80.8%

Compound: O=c1[nH]c2ccccc2n1C1CCN(Cc2ccc(-c3nc4cc5[nH]cnc5cc4nc3-c3ccccc3)cc2)CC1
- residual activity (CDK3 CCNE1 (human)): 97.5%
- residual activity (CDK6 CCND3 (human)): 99.1%
- residual activity (MYLK2 (human)): 103%
- residual activity (TYRO3 (human)): 103%
- residual activity (AKT3 (human)): 103%
- residual activity (STK39 (human)): 98.2%
- residual activity (TAOK3 (human)): 111%
- residual activity (CHEK1 (human)): 107%
- residual activity (DAPK2 (human)): 99%
- residual activity (CAMK2A (human)): 109%
- residual activity [1]: 94.6%
- residual activity (CLK1 (human)): 109%
- residual activity (TSSK1B (human)): 96.5%
- residual activity (RIPK2 (human)): 89.2%
- residual activity (HIPK4 (human)): 99.3%
- residual activity (TSSK2 (human)): 96.2%
- residual activity (MAPK1 (human)): 112%
- residual activity (STK11 (human)): 95.6%
- residual activity (JAK3 JH1 JH2 (human)): 100%
- residual activity (EPHB4 (human)): 96.4%
- residual activity (PBK (human)): 103%
- residual activity (CDK4 CCND1 (human)): 108%
- residual activity (CAMK2D (human)): 97.7%
- residual activity (YES1 (human)): 90.8%
- residual activity (ROCK1 (human)): 101%
- residual activity (CDK2 CCNA2 (human)): 98%
- residual activity (CAMK1G (human)): 101%
- residual activity (TGFBR1 (human)): 102%
- residual activity (IRAK1 (human)): 109%
- residual activity (PRKCI (human)): 97%
- residual activity (GRK7 (human)): 98.5%
- residual activity (DAPK3 (human)): 106%
- residual activity (VRK1 (human)): 98.3%
- residual activity (PRKCH (human)): 101%
- residual activity (PIM2 (human)): 111%
- residual activity (GRK4 (human)): 104%
- residual activity (PRKD1 (human)): 94.7%
- residual activity (RPS6KA5 KD2 (human)): 103%
- residual activity (CAMK2B (human)): 104%
- residual activity [2]: 101%
- residual activity (STK33 (human)): 89.6%

Compound: Cc1cc(Nc2nc(-c3ccccc3)nc3ccccc23)n[nH]1
- residual activity (CDK3 CCNE1 (human); ATP 10 µM): 85%
- residual activity (CDK6 CCND3 (human); ATP 10 µM): 58.4%
- residual activity (MYLK2 (human)): 62.8%
- residual activity (TYRO3 (human)): 94.2%
- residual activity (AKT3 (human)): 95.5%
- residual activity (STK39 (human); ATP 10 µM): 118%
- residual activity (TAOK3 (human)): 86.9%
- residual activity (CHEK1 (human)): 69.1%
- residual activity (DAPK2 (human)): 89.5%
- residual activity (CAMK2A (human)): 108%
- residual activity [1]: 83.7%
- residual activity (CLK1 (human)): 74%
- residual activity (TSSK1B (human)): 76.7%
- residual activity (RIPK2 (human)): 70.4%
- residual activity (HIPK4 (human)): 102%
- residual activity (TSSK2 (human)): 105%
- residual activity (MAPK1 (human)): 89.3%
- residual activity (STK11 (human)): 69%
- residual activity (JAK3 JH1 JH2 (human)): 96.7%
- residual activity (EPHB4 (human)): 91.1%
- residual activity (PBK (human)): 95.4%
- residual activity (CDK4 CCND1 (human); ATP 10 µM): 100%
- residual activity (CAMK2D (human)): 97.3%
- residual activity (YES1 (human)): 20.4%
- residual activity (ROCK1 (human)): 98.8%
- residual activity (CDK2 CCNA2 (human); ATP 10 µM): 96.9%
- residual activity (CAMK1G (human)): 101%
- residual activity (TGFBR1 (human)): 97.1%
- residual activity (IRAK1 (human)): 79.3%
- residual activity (PRKCI (human)): 82.6%
- residual activity (GRK7 (human)): 79.2%
- residual activity (DAPK3 (human)): 57.5%
- residual activity (VRK1 (human)): 81%
- residual activity (PRKCH (human)): 89.6%
- residual activity (PIM2 (human)): 92.7%
- residual activity (GRK4 (human)): 92.1%
- residual activity (PRKD1 (human)): 77.4%
- residual activity (RPS6KA5 KD2 (human)): 70.5%
- residual activity (CAMK2B (human)): 97.7%
- residual activity [2]: 34.3%
- residual activity (STK33 (human)): 44.7%
